Target: T1, integrin α4 β1 (Homo sapiens, UniProt P05556+P13612)
T1 construct: cell strain Jurkat (ATCC TIB-152) of human T cells, known to express integrin α4 β1; endogenous in cells; host or cells: Jurkat (ATCC TIB-152)
Assay: VCAM antagonist activity (VCAM-1/α4β1 binding assay), Jurkat cells binding to VCAM-1
Assay type: cell-based
Settings: Jurkat cells binding to recombinant human VCAM-1; 50% binding inhibition; read-out: Antagonistic Activity IC50 α 4 β 1/VCAM
Protocol: VCAM Antagonist Activity (VCAM-1/α4β1 Binding Assay)
The capacity of a test substance antagonistic to the binding of cell strain Jurkat (ATCC TIB-152) of human T cells, known to express integrin α4 β1, to VCAM-1 was determined. 100 μl/well of a solution (500 ng/ml) of recombinant human VCAM-1 (R & D systems) solution diluted with buffer A (0.1 M NaHCO3, pH 9.6) was added to a micro titer plate having 96 wells (Nunc Maxisorp). After the incubation at 4° C. overnight, unbound VCAM-1 was removed by washing once with PBS. After completion of the washing, a buffer (buffer B) obtained by diluting Block Ace (Dainippon Pharmaceutical Co., Ltd.) with PBS to ¼ concentration was added in an amount of 150 μl/well. After the incubation at room temperature for 1 hour, buffer B was removed and the plate was washed with PBS once.
Jurkat cells were washed with Dulbecco modified Eagle medium (SIGMA, hereinafter referred to as “DMEM”) twice and then incubated in DMEM containing 10 μg/ml of Calcein-AM (Wako Pure Chemical Industries, Ltd.) at 37° C. in dark place for 30 minutes to label with fluorescence. The cells were again suspended in a binding buffer (20 mM HEPES, DMEM containing 0.1% BSA).
50 μl of a test substance of various concentrations obtained by the dilution with the binding buffer was added to the plate. Immediately thereafter, 50 μl (final volume: 100 μl well) of the fluorescent Jurkat cells (4×10^6 cells/ml) were added thereto, and they were incubated at room temperature for 30 minutes. After the shaking on a plate shaker (IKA MTS-4) at 800 rpm for 30 seconds, the solution was immediately removed to remove the unbound cells. The fluorescence quantity of the bound cells remaining in the wells was determined with a fluorescent plate reader (Wallac 1420 ARVO multi-label counter) (filter excitation wave length: 485 nm, emission wave length: 535 nm). The fluorescent strength thus obtained is proportional to the number of Jurkat cells bound to VCAM-1 and remaining on the plate. The binding rate of each test material in various concentrations was determined while the fluorescent strength of the test material-free well was determined to be 100%. The concentration IC50 for the 50% binding inhibition was calculated.

T1 sequence (P13612 34-1032): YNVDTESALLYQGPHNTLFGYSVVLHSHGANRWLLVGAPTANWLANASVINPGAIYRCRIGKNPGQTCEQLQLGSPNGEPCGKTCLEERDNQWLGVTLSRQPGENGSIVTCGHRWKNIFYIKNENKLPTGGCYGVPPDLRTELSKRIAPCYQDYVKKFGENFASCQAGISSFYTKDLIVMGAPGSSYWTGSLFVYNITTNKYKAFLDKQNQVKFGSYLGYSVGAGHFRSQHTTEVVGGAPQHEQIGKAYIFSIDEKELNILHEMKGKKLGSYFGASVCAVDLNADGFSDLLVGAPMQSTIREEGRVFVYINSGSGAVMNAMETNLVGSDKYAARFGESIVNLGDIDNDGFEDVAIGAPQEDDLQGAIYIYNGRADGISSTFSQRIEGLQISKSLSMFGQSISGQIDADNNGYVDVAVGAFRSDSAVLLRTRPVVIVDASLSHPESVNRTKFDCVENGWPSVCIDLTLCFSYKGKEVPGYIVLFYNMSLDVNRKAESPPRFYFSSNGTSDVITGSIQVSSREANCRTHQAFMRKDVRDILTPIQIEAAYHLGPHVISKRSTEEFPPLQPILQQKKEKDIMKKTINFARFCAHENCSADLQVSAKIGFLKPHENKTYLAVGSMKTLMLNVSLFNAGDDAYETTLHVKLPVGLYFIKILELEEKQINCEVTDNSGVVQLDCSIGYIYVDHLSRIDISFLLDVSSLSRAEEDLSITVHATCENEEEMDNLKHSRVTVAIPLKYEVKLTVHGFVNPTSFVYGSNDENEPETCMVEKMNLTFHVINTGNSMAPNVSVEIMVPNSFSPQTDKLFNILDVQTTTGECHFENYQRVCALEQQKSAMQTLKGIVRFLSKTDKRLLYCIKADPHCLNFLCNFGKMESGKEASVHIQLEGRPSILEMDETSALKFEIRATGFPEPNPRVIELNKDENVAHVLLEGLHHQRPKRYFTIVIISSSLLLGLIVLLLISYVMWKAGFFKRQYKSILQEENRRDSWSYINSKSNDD
T1 sequence (P05556 21-798): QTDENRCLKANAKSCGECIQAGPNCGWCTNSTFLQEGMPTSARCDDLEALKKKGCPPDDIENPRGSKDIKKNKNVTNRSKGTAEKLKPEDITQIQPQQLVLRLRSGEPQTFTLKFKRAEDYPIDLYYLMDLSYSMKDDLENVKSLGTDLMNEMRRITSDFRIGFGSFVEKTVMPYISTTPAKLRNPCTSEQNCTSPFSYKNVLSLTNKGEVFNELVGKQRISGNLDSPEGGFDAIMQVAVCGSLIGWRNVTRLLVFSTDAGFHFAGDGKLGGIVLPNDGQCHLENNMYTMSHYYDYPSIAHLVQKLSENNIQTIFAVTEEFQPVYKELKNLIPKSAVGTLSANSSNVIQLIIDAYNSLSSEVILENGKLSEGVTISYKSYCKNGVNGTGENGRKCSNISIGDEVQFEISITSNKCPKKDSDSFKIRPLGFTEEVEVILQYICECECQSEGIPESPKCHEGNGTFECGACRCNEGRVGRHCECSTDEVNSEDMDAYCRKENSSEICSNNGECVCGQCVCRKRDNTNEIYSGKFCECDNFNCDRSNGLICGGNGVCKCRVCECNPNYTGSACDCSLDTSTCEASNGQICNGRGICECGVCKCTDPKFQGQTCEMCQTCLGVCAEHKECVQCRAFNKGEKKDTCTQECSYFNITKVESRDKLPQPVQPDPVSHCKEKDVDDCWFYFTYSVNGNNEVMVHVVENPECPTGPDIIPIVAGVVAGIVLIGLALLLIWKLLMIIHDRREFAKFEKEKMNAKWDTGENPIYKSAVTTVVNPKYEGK

Row | SMILES | IC50 [nM]
1 | CCOc1ccc2c(c1)C(=O)N(c1ccc(C[C@H](NC(=O)c3c(Cl)cccc3Cl)C(=O)O)cc1)C2=O [Example 79] | 570
2 | O=C(N[C@@H](Cc1ccc(N2C(=O)[C@@H]3[C@H](C2=O)[C@@H]2C=C[C@H]3C2)cc1)C(=O)O)c1c(Cl)cccc1Cl [Example 42] | 560
3 | Cc1ccc(C)c2c1C(=O)N(c1ccc(C[C@H](NC(=O)c3c(Cl)cccc3Cl)C(=O)O)cc1)C2=O [Example 30] | 450
4 | COc1ccc2c(c1)C(=O)N(c1ccc(C[C@H](NC(=O)c3c(Cl)cccc3Cl)C(=O)O)cc1)C2=O [Example 78] | 520
5 | O=C(N[C@@H](Cc1ccc(N2C(=O)C3CC3C2=O)cc1)C(=O)O)c1c(Cl)cccc1Cl (some centres unmarked) [Example 46] | 1700
6 | O=C(N[C@@H](Cc1ccc(N2C(=O)[C@@H]3[C@H](C2=O)[C@@H]2C=C[C@H]3CC2)cc1)C(=O)O)c1c(Cl)cccc1Cl [Example 44] | 1400
7 | O=C(N[C@@H](Cc1ccc(N2C(=O)C3=C(SCCS3)C2=O)cc1)C(=O)O)c1c(Cl)cccc1Cl [Example 38] | 220
8 | O=C(N[C@@H](Cc1ccc(N2C(=O)[C@H]3CC=CC[C@H]3C2=O)cc1)C(=O)O)c1c(Cl)cccc1Cl [Example 45] | 1200
9 | Cc1cccc2c1C(=O)N(c1ccc(C[C@H](NC(=O)c3c(Cl)cc(-c4nnn[nH]4)cc3Cl)C(=O)O)cc1)C2=O [Example 83, (2S)-2-(2,6-dichloro-4-tetrazolyl-benzoylamino)-3-[4-(4-methyl-1,3-dioxo-1,3-dihydroisoindole-2-yl)phenyl] Propionic Acid] | 5.9
10 | CC1(C)[C@H]2CC[C@]1(C)C(=O)N(c1ccc(C[C@H](NC(=O)c3c(Cl)cccc3Cl)C(=O)O)cc1)C2=O [Example 49] | 2000
11 | CCOc1cccc2c1C(=O)N(c1ccc(C[C@H](NC(=O)c3c(Cl)cccc3Cl)C(=O)O)cc1)C2=O [Example 73] | 210
12 | Nc1cccc2c1C(=O)N(c1ccc(C[C@H](NC(=O)c3c(Cl)cccc3Cl)C(=O)O)cc1)C2=O [Example 71] | 410
13 | O=C(N[C@@H](Cc1ccc(N2C(=O)Cc3ccccc3CC2=O)cc1)C(=O)O)c1c(Cl)cccc1Cl [Example 82] | 3500
14 | O=C(N[C@@H](Cc1ccc(N2CC=CC2=O)cc1)C(=O)O)c1c(Cl)cccc1Cl [Example 25] | 5000
15 | CC(=O)C1Cc2ccccc2C(=O)N1c1ccc(C[C@H](NC(=O)c2c(Cl)cccc2Cl)C(=O)O)cc1 (some centres unmarked) [Example 86] | 530
16 | O=C(N[C@@H](Cc1ccc(N2CC=CCCC2=O)cc1)C(=O)O)c1c(Cl)cccc1Cl [Example 27] | 2800
17 | Cc1ccc2c(c1)C(=O)N(c1ccc(C[C@H](NC(=O)c3c(Cl)cccc3Cl)C(=O)O)cc1)C2=O [Example 6] | 240
18 | O=C(N[C@@H](Cc1ccc(N2C(=O)c3ccc([N+](=O)[O-])cc3C2=O)cc1)C(=O)O)c1c(Cl)cccc1Cl [Example 9] | 170

Row | SMILES | IC50 [nM]
19 | O=C(N[C@@H](Cc1ccc(N2C(=O)c3ccc(O)cc3C2=O)cc1)C(=O)O)c1c(Cl)cccc1Cl [Example 77] | 770
20 | O=C(N[C@@H](Cc1ccc(N2C(=O)c3cccc4cccc(c34)C2=O)cc1)C(=O)O)c1c(Cl)cccc1Cl [Example 16] | 1100
21 | CN(C)C(=O)c1ccc2c(c1)C(=O)N(c1ccc(C[C@H](NC(=O)c3c(Cl)cccc3Cl)C(=O)O)cc1)C2=O [Example 33] | 260
22 | Cc1cccc2c1C(=O)N(c1ccc(C[C@H](NC(=O)c3c(Cl)cncc3Cl)C(=O)O)cc1)C2=O [Example 59] | 73
23 | O=C(N[C@@H](Cc1ccc(N2C(=O)c3cccc(OCc4ccccc4)c3C2=O)cc1)C(=O)O)c1c(Cl)cccc1Cl [Example 74] | 1200
24 | O=C(N[C@@H](Cc1ccc(N2Cc3ccccc3C2=O)cc1)C(=O)O)c1c(Cl)cccc1Cl [Example 17] | 1900
25 | CC1CCC2C(=O)N(c3ccc(C[C@H](NC(=O)c4c(Cl)cccc4Cl)C(=O)O)cc3)C(=O)C2C1 (some centres unmarked) [Example 43] | 1600
26 | O=C(N[C@@H](Cc1ccc(N2CC=CCC2=O)cc1)C(=O)O)c1c(Cl)cccc1Cl [Example 26] | 5300
27 | O=C(N[C@@H](Cc1ccc(N2C(=O)c3ccccc3C2=O)cc1)C(=O)O)c1c(Cl)cccc1Cl [Example 1] | 210
28 | O=C(N[C@@H](Cc1ccc(N2C(=O)c3ccc(OCc4ccccc4)cc3C2=O)cc1)C(=O)O)c1c(Cl)cccc1Cl [Example 80] | 1100
29 | O=C(N[C@@H](Cc1ccc(N2C(=O)C3=C(CCCC3)C2=O)cc1)C(=O)O)c1c(Cl)cccc1Cl [Example 37] | 140
30 | CCCCOc1cccc2c1C(=O)N(c1ccc(C[C@H](NC(=O)c3c(Cl)cccc3Cl)C(=O)O)cc1)C2=O [Example 75] | 790
31 | O=C(N[C@@H](Cc1ccc(N2C(=O)CC3(CCCC3)CC2=O)cc1)C(=O)O)c1c(Cl)cccc1Cl [Example 48] | 1300
32 | O=C(N[C@@H](Cc1ccc(N2C(=O)[C@@H]3CCCC[C@H]3C2=O)cc1)C(=O)O)c1c(Cl)cccc1Cl [Example 40] | 240
33 | O=C(N[C@@H](Cc1ccc(N2C(=O)[C@H]3CC[C@H](c4ccccc4)C[C@H]3C2=O)cc1)C(=O)O)c1c(Cl)cccc1Cl [Example 47] | 2100
34 | O=C(N[C@@H](Cc1ccc(N2C(=O)Cc3ccccc3C2=O)cc1)C(=O)O)c1c(Cl)cccc1Cl [Example 15] | 740
35 | Cc1cccc2c1C(=O)N(c1ccc(C[C@H](NC(=O)c3c(Cl)cc(NS(C)(=O)=O)cc3Cl)C(=O)O)cc1)C2=O [Example 84] | 15

— patent publication US7452905B2, “Phenylalanine derivatives” (Ajinomoto Co., Inc., priority 2000, dated 2008)
